Several values for one entry are separate records, joined by “and”; a condition that tells them apart may be missing. Equal values may be shown once. Numbers after ± are expanded uncertainties.
Conditions: Liquid, Flow apparatus with low residence time

CC1(C)CO1 [2,2-dimethyloxirane]
Conditions	Critical pressure [kPa]	Critical temperature [K]	vapor or sublimation pressure [kPa]
–	4350 ± 170	499.9 ± 4	–
320.1 K	–	–	87.08 ± 3.6
339.1 K	–	–	165.1 ± 6.7
365.6 K	–	–	348.9 ± 14
393.2 K	–	–	678.4 ± 27
428.2 K	–	–	1381 ± 56
469.4 K	–	–	2760 ± 110
496.4 K	–	–	4141 ± 170
499.2 K	–	–	4306 ± 170

CC(=O)OC(C)OC(C)=O [ethylidene diethanoate]
Conditions	Critical pressure [kPa]	Critical temperature [K]	vapor or sublimation pressure [kPa]
–	2970 ± 120	618.2 ± 4	–
461.6 K	–	–	177.6 ± 7.2
486.4 K	–	–	314.3 ± 13
514.2 K	–	–	555.5 ± 22
541.2 K	–	–	902.2 ± 36
571.5 K	–	–	1457 ± 59
601.1 K	–	–	2286 ± 92
608.2 K	–	–	2561 ± 100
612 K	–	–	2697 ± 110

CC(=O)OC(C)(C)C [1,1-dimethylethyl ethanoate]
Conditions	Critical pressure [kPa]	Critical temperature [K]	vapor or sublimation pressure [kPa]
–	3040 ± 120	541.2 ± 4	–
472.7 K	–	–	1053 ± 42
495 K	–	–	1527 ± 61
514.5 K	–	–	2074 ± 83
533.7 K	–	–	2722 ± 110
535.7 K	–	–	2802 ± 110
535.9 K	–	–	2801 ± 110
536.4 K	–	–	2835 ± 110
537.3 K	–	–	2868 ± 120
537.7 K	–	–	2903 ± 120
538.6 K	–	–	2949 ± 120

CC(O)CCO (stereo not given) [1,3-butanediol]
Conditions	Critical pressure [kPa]	Critical temperature [K]	vapor or sublimation pressure [kPa]
–	5180 ± 210	692.4 ± 4	–
481.4 K	–	–	100.2 ± 4.1
508.1 K	–	–	209.6 ± 8.5
537.8 K	–	–	418.5 ± 17
576 K	–	–	898.4 ± 36
614.7 K	–	–	1719 ± 69
646.7 K	–	–	2774 ± 110
662.5 K	–	–	3462 ± 140
676.7 K	–	–	4158 ± 170
688.2 K	–	–	4840 ± 190

CCCCSSCCCC [5,6-dithiadecane]
Conditions	vapor or sublimation pressure [kPa]
504.2 K	90.32 ± 3.7
535.7 K	180.3 ± 7.3
571.7 K	349.6 ± 14
614.9 K	695.7 ± 28

O=CN1CCOCC1 [N-formylmorpholine]
Conditions	Critical pressure [kPa]	Critical temperature [K]	vapor or sublimation pressure [kPa]
–	5080 ± 310	779.3 ± 4	–
507.5 K	–	–	91.7 ± 9.9
538 K	–	–	174.8 ± 19
573.2 K	–	–	343.4 ± 37
614.6 K	–	–	688.1 ± 74
663.6 K	–	–	1379 ± 150
664.7 K	–	–	1382 ± 150
723.7 K	–	–	2761 ± 300
745.2 K	–	–	3447 ± 370
762.7 K	–	–	4137 ± 440
775.2 K	–	–	4826 ± 520
777.7 K	–	–	4999 ± 540

CN(CCO)CCO [N-methyldiethanolamine]
Conditions	Critical pressure [kPa]	Critical temperature [K]	vapor or sublimation pressure [kPa]
–	4160 ± 170	741.9 ± 4	–
519.7 K	–	–	98.59 ± 4
543.3 K	–	–	175.1 ± 7.1
574.8 K	–	–	346.1 ± 14
617.1 K	–	–	743.9 ± 30
657.1 K	–	–	1389 ± 56
707.5 K	–	–	2785 ± 110
728.1 K	–	–	3475 ± 140
735.4 K	–	–	3799 ± 150
738.4 K	–	–	3985 ± 160

OCCCOCCCO [4-oxa-1,7-heptanediol]
Conditions	Critical pressure [kPa]	Critical temperature [K]	vapor or sublimation pressure [kPa]
–	3380 ± 140	705.2 ± 4	–
505 K	–	–	100.7 ± 4.1
534.3 K	–	–	208.2 ± 8.4
564.2 K	–	–	395.8 ± 16
607.2 K	–	–	854.3 ± 34
649.8 K	–	–	1631 ± 65
689.9 K	–	–	2779 ± 110
699.1 K	–	–	3123 ± 120
703.4 K	–	–	3296 ± 130

O=S1(=O)CCCC1 [sulfolane]
Conditions	vapor or sublimation pressure [kPa]
560.2 K	103.6 ± 4.2
594.4 K	203.9 ± 8.2
626.3 K	350.2 ± 14
656.3 K	556.8 ± 22
685.1 K	829.2 ± 33
713.2 K	1181 ± 47
742 K	1665 ± 67
773.4 K	2363 ± 95
802.7 K	3185 ± 130
829 K	4144 ± 170

O=C=Nc1ccccc1 [phenyl isocyanate]
Conditions	Critical pressure [kPa]	Critical temperature [K]	vapor or sublimation pressure [kPa]
–	4000 ± 400	656.9 ± 10	–
479.7 K	–	–	278.9 ± 11
553.2 K	–	–	1038 ± 42
588.3 K	–	–	1724 ± 69
618.6 K	–	–	2551 ± 100
653 K	–	–	3795 ± 150
653.1 K	–	–	3793 ± 150

NCCOCCO [2-(2-aminoethoxy)ethanol]
Conditions	Critical pressure [kPa]	Critical temperature [K]	vapor or sublimation pressure [kPa]
–	4800 ± 190	721.2 ± 4	–
500.9 K	–	–	117.3 ± 4.8
526.9 K	–	–	225.2 ± 9.1
564.9 K	–	–	496.6 ± 20
594.2 K	–	–	842.6 ± 34
625.9 K	–	–	1395 ± 56
653.9 K	–	–	2085 ± 84
685 K	–	–	3130 ± 120
716.5 K	–	–	4521 ± 180
719.4 K	–	–	4729 ± 190

CC(C)c1ccc(C(C)C)cc1 [1,4-diisopropylbenzene]
Conditions	Critical pressure [kPa]	Critical temperature [K]	vapor or sublimation pressure
–	2360 ± 90	676.2 ± 4	–
518 K	–	–	217.1 ± 8.8 kPa
552.6 K	–	–	416.3 ± 17 kPa
596.8 K	–	–	837.8 ± 34 kPa
648.1 K	–	–	1669 ± 67 kPa and 1667 ± 67 kPa
666.2 K	–	–	2078 ± 83 kPa
672.3 K	–	–	2258 ± 90 kPa
675.9 K	–	–	2325 ± 93 kPa

c1cocn1 [1,3-oxazole]
Conditions	Critical pressure [kPa]	Critical temperature [K]	vapor or sublimation pressure [kPa]
–	6770 ± 270	550.8 ± 4	–
479 K	–	–	2424 ± 97
494.6 K	–	–	3116 ± 120
514.9 K	–	–	4146 ± 170
535.5 K	–	–	5523 ± 220
547.4 K	–	–	6492 ± 260

CCOC(=O)C(=O)OCC [diethyl ethanedioate]
Conditions	Critical pressure [kPa]	Critical temperature [K]	vapor or sublimation pressure [kPa]
–	3060 ± 120	645.8 ± 4	–
454.6 K	–	–	90.67 ± 3.7
481.8 K	–	–	182.4 ± 7.4
512.9 K	–	–	359.9 ± 14
547.3 K	–	–	690.9 ± 28
590.1 K	–	–	1381 ± 55
638.8 K	–	–	2761 ± 110
642.5 K	–	–	2934 ± 120
644.4 K	–	–	3013 ± 120

C=CC(=O)OCCCC [butyl 2-propenoate]
Conditions	Critical pressure [kPa]	Critical temperature [K]	vapor or sublimation pressure [kPa]
–	2840 ± 110	601.2 ± 4	–
441.9 K	–	–	178.6 ± 7.2
471.9 K	–	–	351.6 ± 14
506.5 K	–	–	689.5 ± 28
549.3 K	–	–	1380 ± 55
599.1 K	–	–	2761 ± 110

O=C1CCCO1 [γ-butyrolactone]
Conditions	Critical pressure [kPa]	Critical temperature [K]	vapor or sublimation pressure [kPa]
–	5100 ± 200	732.5 ± 4	–
474.9 K	–	–	93.29 ± 3.8
501.8 K	–	–	174.7 ± 7
532.5 K	–	–	325.8 ± 13
562.6 K	–	–	558.5 ± 22
600 K	–	–	1005 ± 40
639 K	–	–	1723 ± 69
673.8 K	–	–	2643 ± 110
696.7 K	–	–	3454 ± 140
713.8 K	–	–	4147 ± 170
726.8 K	–	–	4779 ± 190
730.8 K	–	–	5013 ± 200

CSSC [2,3-dithiabutane]
Conditions	Critical pressure [kPa]	Critical temperature [K]	vapor or sublimation pressure [kPa]
–	5070 ± 200	607.8 ± 4	–
466.3 K	–	–	690 ± 28
500.8 K	–	–	1244 ± 50
533.1 K	–	–	2002 ± 80
561 K	–	–	2897 ± 120
591.4 K	–	–	4205 ± 170
604.8 K	–	–	4902 ± 200
607.2 K	–	–	5037 ± 200
